Experimental findings from patent publication US7879792B2, “Synthetic peptide inhibitors of thrombin and thrombin activation of protease activated receptors 1 and 4” (The Regents of the University of Michigan, priority 2005, dated 2011) are described below.

“Also recorded” adds a separate entry of the source. Read-outs that look alike come from different tables or passages of the source. Where a SMILES comes first, the peptide text is derived from it.

Data set [1] in a line: stability testing in intestinal perfusate. The data set is classed as in vitro ADME. To be noted: male, Sprague Dawley, rat, intestinal (jejunal) perfusate, pH 6.5, rat. As to the method: Stability testing of the various compounds was performed in buffer, intestinal perfusate, and an intestinal homogenate preparation to assess the potential oral availability of these compounds. Initial studies prepared the tissue for stability studies. The buffer used in stability testing is 10 mM MES (pH 6.5) containing 135 mM NaCl, and 5 mM KCl. To collect intestinal perfusate from rats, male Sprague Dawley rats, 8 to 10 weeks old, weighing 250 to 350 g were fasted 15 to 18 hours with water given ad libitum. Anesthesia was administered by intramuscular injection of pentobarbital/ketamine (40 mg/kg and 80 mg/kg, respectively). The rats were placed on a warming pad under a surgical lamp to maintain body temperature and jejunal intestinal segments were exposed through a midline, abdominal incision. Approximately 20 cm segment of the jejunum (2 to 4 cm distal to the ligament of Treitz) was cannulated and the intestinal segments were perfused with 10 mM MES (pH 6.5) containing 135 mM NaCl, and 5 mM KCl at a flow-rate of 0.5 ml/min at 37° C. using a constant infusion pump (Harvard Apparatus, South Natick, Mass.). The collected perfusate was stored at −80° C. until use for ex vivo stability studies. After collection, the perfused intestinal segments were flushed with ice-cold 0.15 M KCl solution and the animal was euthanized and the jejunal intestinal segment detached. The inner intestinal tissue layers are scraped out and homogenized in MES buffer (pH 6.5) in a ratio of 1 part of intestinal tissue to 5 parts buffer. Total protein content of the perfusate and the homogenate were determined using a Biorad protein assay kit. The intestinal homogenate samples were used immediately or rapidly frozen at −80° C. until stability analysis.
The actual stability testing protocol is as follows: A 0.1 ml aliquot of the synthetic peptide solution (1 mg/ml) was added to 0.9 ml of MES buffer, pH 6.5, intestinal perfusate, or intestinal homogenate at 37° C. Samples were mixed by vortexing and 100 microliter aliquots were removed over a 60 to 90 minute period for analysis of breakdown products. The 100 microliter sample aliquots were diluted 10 fold with water and subjected to solid phase extraction using a Waters Oasis HLB column. Briefly, the columns were preconditioned by passing 1 ml of MeOH and 1 ml of water over the column, and 1 ml of sample was added to the column. The column was washed with 5% methanol:95% water solution to remove proteins and salts, then eluted with 1 ml of 100% methanol. The methanol was removed by vacuum, and the sample was reconstituted in mobile phase for LC/MS/MS analysis.
LC/MS/MS analysis was performed on a HP1100 HPLC (Hewlett Packard) interfaced with a Quattro II MS/MS detector (Waters/Micromass). For the HPLC separation, a 10 μL aliquot of sample in a mobile phase consisting of an equal volume mixture of acetonitrile/water containing 0.5% formic acid was injected onto a 150 mm×2.2 mm, 5 μm C8 column (Higgins Analytical Inc) and developed at a flow rate of 0.2 ml/min for 5 minutes. The MS detector was used in single ion recording mode at a cone voltage of 50 Volts.

The next data set deals with C57BL6 mice. Description: Rose Bengal model for arterial thrombosis, time to carotid artery occlusion. Type of data set: in vivo, mouse. To be noted: 0.2 to 3.22 mg/kg IP. The source says:
C57BL6 mice 6 to 16 weeks of age were anesthetized by intraperitoneal injection with sodium pentobarbital and placed in the supine position on a dissecting microscope (Nikon SMZ-2T, Mager Scientific, Inc., Dexter, Mich.). A midline surgical incision was made to expose the right common carotid artery and a Doppler flow probe (Model 0.5 VB, Transonic Systems, Ithaca, N.Y.) is placed under the vessel. The probe was connected to a flowmeter (Transonic Model T106) and was interpreted with a computerized data acquisition program (Windaq, DATAQ Instruments, Arkron, Ohio). Rose Bengal (4,5,6,7-tetrachloro-3′,6-dihydroxy-2,4,5,7-tetraiodospiro(isobenzofuran-1(3H), 9 [9H] xanthan)-3-1 dipotassium salt) (Fisher Scientific, Fair Lawn, N.J.) at 50 mg/kg in 0.9% saline) was then injected into the tail vein in a 0.12 ml volume (Eitzman et al., Blood 95, 577 (2000)). After injection into the tail vein, a green laser light (Melles Griot, Carlsbad, Calif.) at a wavelength of 540 nm was applied 6 cm from the carotid artery. Flow is monitored continuously from the onset of injury. The time to occlusion was determined only after the vessel remained closed with a cessation of blood flow for 20 min. […] These investigations indicate that these compounds are able to prevent thrombosis in the whole animal in vivo.

For the compound `N=C(N)NCCC[C@@H](N)C(=O)N1[C@H](C(=O)N2CCC[C@H]2C(=O)NCC(=O)N[C@@H](Cc2ccccc2)C(N)=O)C[C@@H]2CCCC[C@@H]21` [rOicPGF, D-Arg-Oic-Pro-Gly-Phe, reference compound] (HELM PEPTIDE1{[dR].[O=C([C@@H]1C[C@@H]2CCCC[C@@H]2N1[*:1])[*:2]].P.G.F.[am]}$$$$V2.0), the half-life at 0.1 mg/ml in data set [1] (37° C., read-out: t1/2 (min) Intestinal Perfusate) was 111 min; in data set [1] (read-out: t1/2 in intestinal perfusate (converted)), 120 min. On to `Cc1ccc(C[C@H](NC(=O)[C@@H](C)NC(=O)[C@@H]2CCCN2C(=O)[C@@H]2C[C@@H]3CCCC[C@@H]3N2C(=O)[C@H](N)CCCNC(=N)N)C(N)=O)cc1` [rOicPaF(p-Me), D-Arg-Oic-Pro-D-Ala-Phe(p-Me)] (HELM PEPTIDE1{[dR].[O=C([C@@H]1C[C@@H]2CCCC[C@@H]2N1[*:1])[*:2]].P.[dA].[Cc1ccc(C[C@H](N[*:1])C(=O)[*:2])cc1].[am]}$$$$V2.0), for which the “time to occlusion of the mouse right carotid artery” value in the data set with C57BL6 mice is on record as “significant prolongation; also recorded: progressively prolonged”.
